Calls of active or inactive are those of the source. The rule behind the calls is not given here.
What was measured:
[1] = test system: NCI-H460; assay: Induction of cell cycle arrest in human NCI-H460 cells assessed as accumulation of cells at G0/G1 phase at 0.1 uM for 24 hrs by Click-iT EdU Alexa Fluor 647 flow cytometric assay kit analysis (reference value: 43%); type: functional
[2] = test system: NCI-H460; assay: Induction of cell cycle arrest in human NCI-H460 cells assessed as accumulation of cells at S phase at 1 uM for 24 hrs by Click-iT EdU Alexa Fluor 647 flow cytometric assay kit analysis (reference value: 56%); type: functional
[3] = test system: NCI-H460; assay: Induction of cell cycle arrest in human NCI-H460 cells assessed as accumulation of cells at G0/G1 phase at 1 uM for 24 hrs by Click-iT EdU Alexa Fluor 647 flow cytometric assay kit analysis (reference value: 43%); type: functional
[4] = test system: NCI-H460; assay: Induction of cell cycle arrest in human NCI-H460 cells assessed as accumulation of cells at S phase at 0.5 uM for 24 hrs by Click-iT EdU Alexa Fluor 647 flow cytometric assay kit analysis (reference value: 56%); type: functional
[5] = test system: NCI-H460; assay: Induction of cell cycle arrest in human NCI-H460 cells assessed as accumulation of cells at G0/G1 phase at 0.5 uM for 24 hrs by Click-iT EdU Alexa Fluor 647 flow cytometric assay kit analysis (reference value: 43%); type: functional
[6] = test system: NCI-H460; assay: Induction of cell cycle arrest in human NCI-H460 cells assessed as accumulation of cells at S phase at 0.25 uM for 24 hrs by Click-iT EdU Alexa Fluor 647 flow cytometric assay kit analysis (reference value: 56%); type: functional
[7] = test system: NCI-H460; assay: Induction of cell cycle arrest in human NCI-H460 cells assessed as accumulation of cells at G2/M phase at 0.1 uM for 24 hrs by Click-iT EdU Alexa Fluor 647 flow cytometric assay kit analysis (reference value: 1%); type: functional
[8] = test system: NCI-H460; assay: Induction of cell cycle arrest in human NCI-H460 cells assessed as accumulation of cells at G2/M phase at 0.25 uM for 24 hrs by Click-iT EdU Alexa Fluor 647 flow cytometric assay kit analysis (reference value: 1%); type: functional
[9] = test system: NCI-H460; assay: Induction of cell cycle arrest in human NCI-H460 cells assessed as accumulation of cells at G2/M phase at 0.5 uM for 24 hrs by Click-iT EdU Alexa Fluor 647 flow cytometric assay kit analysis (reference value: 1%); type: functional
[10] = test system: NCI-H460; assay: Induction of cell cycle arrest in human NCI-H460 cells assessed as accumulation of cells at S phase at 0.5 uM for 24 hrs by Click-iT EdU Alexa Fluor 647 flow cytometric assay kit analysis (reference value: 54%); type: functional
[11] = test system: NCI-H460; assay: Induction of cell cycle arrest in human NCI-H460 cells assessed as accumulation of cells at G2/M phase at 1 uM for 24 hrs by Click-iT EdU Alexa Fluor 647 flow cytometric assay kit analysis (reference value: 1%); type: functional
[12] = test system: NCI-H460; assay: Induction of cell cycle arrest in human NCI-H460 cells assessed as accumulation of cells at S phase at 0.1 uM for 24 hrs by Click-iT EdU Alexa Fluor 647 flow cytometric assay kit analysis (reference value: 56%); type: functional
[13] = test system: NCI-H460; assay: Induction of cell cycle arrest in human NCI-H460 cells assessed as accumulation of cells at G0/G1 phase at 0.25 uM for 24 hrs by Click-iT EdU Alexa Fluor 647 flow cytometric assay kit analysis (reference value: 43%); type: functional
[14] = test system: NCI-H358; assay: Downregulation of XIAP protein expression level in human NCI-H358 cells at 1 uM for 24 hrs by […] analysis; type: functional, cell-based
[15] = test system: NCI-H460; assay: Induction of apoptosis in human NCI-H460 cells assessed as late apoptotic cells at 2.5 uM for 24 hrs by annexin V-PI staining based flow cytometric analysis (reference value: 3.0%); type: functional
[16] = test system: DV-90; assay: Induction of cell cycle arrest in human DV-90 cells assessed as accumulation of cells at G2/M phase at 0.25 uM for 24 hrs by Click-iT EdU Alexa Fluor 647 flow cytometric assay kit analysis (reference value: 24%); type: functional
[17] = test system: DV-90; assay: Induction of cell cycle arrest in human DV-90 cells assessed as accumulation of cells at S phase at 0.25 uM for 24 hrs by Click-iT EdU Alexa Fluor 647 flow cytometric assay kit analysis (reference value: 31%); type: functional
[18] = test system: A549; assay: Induction of cell cycle arrest in human A549 cells assessed as accumulation of cells at G0/G1 phase at 0.5 uM for 24 hrs by Click-iT EdU Alexa Fluor 647 flow cytometric assay kit analysis (reference value: 61%); type: functional
[19] = test system: DV-90; assay: Downregulation of XIAP mRNA expression level in human DV-90 cells at 0.1 to 1 uM for 24 hrs by qRT-PCR analysis; type: functional, cell-based; settings: dose 0.1-1 µM
[20] = test system: DV-90; assay: Induction of cell cycle arrest in human DV-90 cells assessed as accumulation of cells at S phase at 0.5 uM for 24 hrs by Click-iT EdU Alexa Fluor 647 flow cytometric assay kit analysis (reference value: 31%); type: functional
[21] = test system: NCI-H358; assay: Downregulation of FLIP mRNA expression level in human NCI-H358 cells at 0.1 to 1 uM for 24 hrs by qRT-PCR analysis; type: functional, cell-based; settings: dose 0.1-1 µM
[22] = test system: DV-90; assay: Downregulation of […] gene in human DV-90 cells after 24 hrs by microarray profiling analysis; type: functional, cell-based
[23] = test system: DV-90; assay: Induction of cell cycle arrest in human DV-90 cells assessed as accumulation of cells at S phase at 1 uM for 24 hrs by Click-iT EdU Alexa Fluor 647 flow cytometric assay kit analysis (reference value: 31%); type: functional
[24] = test system: NCI-H2030; assay: Downregulation of FLIP mRNA expression level in human NCI-H2030 cells at 0.1 to 1 uM for 24 hrs by qRT-PCR analysis; type: functional, cell-based; settings: dose 0.1-1 µM
[25] = test system: A549; assay: Induction of apoptosis in human A549 cells assessed as early apoptotic cells at 1 uM by annexin V-PI based flow cytometric analysis (reference value: 0.2%); type: functional
[26] = test system: NCI-H1792; assay: Downregulation of XIAP protein expression level in human NCI-H1792 cells at 1 uM for 24 hrs by […] analysis; type: functional, cell-based
[27] = test system: DV-90; assay: Induction of cell cycle arrest in human DV-90 cells assessed as accumulation of cells at S phase at 0.1 uM for 24 hrs by Click-iT EdU Alexa Fluor 647 flow cytometric assay kit analysis (reference value: 31%); type: functional
[28] = test system: NCI-H23; assay: Downregulation of c-MYC mRNA expression level in human NCI-H23 cells at 0.1 to 1 uM for 24 hrs by qRT-PCR analysis; type: functional, cell-based; settings: dose 0.1-1 µM
[29] = test system: NCI-H1373; assay: Induction of TRAIL dependent apoptosis in human NCI-H1373 cells assessed as early apoptotic cells at 1 uM by annexin V-PI staining based flow cytometric analysis (reference value: 0.5%); type: functional
[30] = test system: NCI-H1792; assay: Downregulation of c-MYC protein expression level in human NCI-H1792 cells at 1 uM for 24 hrs by […] analysis; type: functional, cell-based
[31] = test system: A549; assay: Induction of apoptosis in human A549 cells assessed as viable cells at 2.5 uM for 24 hrs by annexin V-PI staining based flow cytometric analysis (reference value: 97.7%); type: functional; settings: read-out: Activity

SMILES | Activity [1] | Activity [2] | Activity [3] | Activity [4] | Activity [5] | Activity [6] | Activity [7] | Activity [8] | Activity [9] | Activity [11] | Activity [12] | Activity [13] | Activity [17] | Activity [20] | Activity [23] | Activity [27] | further results
CCNC(=O)C[C@@H]1N=C(c2ccc(Cl)cc2)c2cc(OC)ccc2-n2c(C)nnc21 [MOLIBRESIB] | 46% | 47% | 51% | 49% | 49% | 54% | 1% | 1% | 1% | 1% | 53% | 45% | – | – | – | – | Activity [10]: 46%
Cc1sc2c(c1C)C(c1ccc(Cl)cc1)=N[C@@H](CC(=O)OC(C)(C)C)c1nnc(C)n1-2 | 44% | 54% | 45% | 54% | 45% | 57% | 1% | 1% | 1% | 1% | 55% | 41% | 24% | 18% | 15% | 27% | Activity [14]: Active; Activity [15]: 5.5%; Activity [16]: 31%; Activity [18]: 63%; Activity [19]: Active; Activity [21]: Active; Activity [22]: Active; Activity [24]: Active; Activity [25]: 0.1%; Activity [26]: Active; Activity [28]: Active; Activity [29]: 2.4%; Activity [30]: Active
Cc1sc2c(c1C)C(c1ccc(Cl)cc1)=N[C@@H](CC(=O)Nc1ccc(O)cc1)c1nnc(C)n1-2 [BIRABRESIB] | – | – | – | – | – | – | 1% | 1% | 3% | 1% | – | – | 21% | 17% | 17% | 20% | viability at 2.5 µM [31]: 97.3%

Reference: ChEMBL document CHEMBL5712891, “Inhibition of BET bromodomain-dependent XIAP and FLIP expression sensitizes KRAS-mutated NSCLC to pro-apoptotic agents” (Cell Death Dis, 2016)
